Assay results reported in BindingDB's records for doi:10.1021/jm990537r (Cocensys, 2000).

Biological target: Glutamate receptor ionotropic NMDA 2B (Rattus norvegicus) (UniProt Q00960)
Assay: In vitro inhibition of NMDA responses at NR1A/2B receptor expressed in Xenopus oocytes

Chain of Glutamate receptor ionotropic NMDA 2B (Rattus norvegicus) (Q00960 whole entry, looked up): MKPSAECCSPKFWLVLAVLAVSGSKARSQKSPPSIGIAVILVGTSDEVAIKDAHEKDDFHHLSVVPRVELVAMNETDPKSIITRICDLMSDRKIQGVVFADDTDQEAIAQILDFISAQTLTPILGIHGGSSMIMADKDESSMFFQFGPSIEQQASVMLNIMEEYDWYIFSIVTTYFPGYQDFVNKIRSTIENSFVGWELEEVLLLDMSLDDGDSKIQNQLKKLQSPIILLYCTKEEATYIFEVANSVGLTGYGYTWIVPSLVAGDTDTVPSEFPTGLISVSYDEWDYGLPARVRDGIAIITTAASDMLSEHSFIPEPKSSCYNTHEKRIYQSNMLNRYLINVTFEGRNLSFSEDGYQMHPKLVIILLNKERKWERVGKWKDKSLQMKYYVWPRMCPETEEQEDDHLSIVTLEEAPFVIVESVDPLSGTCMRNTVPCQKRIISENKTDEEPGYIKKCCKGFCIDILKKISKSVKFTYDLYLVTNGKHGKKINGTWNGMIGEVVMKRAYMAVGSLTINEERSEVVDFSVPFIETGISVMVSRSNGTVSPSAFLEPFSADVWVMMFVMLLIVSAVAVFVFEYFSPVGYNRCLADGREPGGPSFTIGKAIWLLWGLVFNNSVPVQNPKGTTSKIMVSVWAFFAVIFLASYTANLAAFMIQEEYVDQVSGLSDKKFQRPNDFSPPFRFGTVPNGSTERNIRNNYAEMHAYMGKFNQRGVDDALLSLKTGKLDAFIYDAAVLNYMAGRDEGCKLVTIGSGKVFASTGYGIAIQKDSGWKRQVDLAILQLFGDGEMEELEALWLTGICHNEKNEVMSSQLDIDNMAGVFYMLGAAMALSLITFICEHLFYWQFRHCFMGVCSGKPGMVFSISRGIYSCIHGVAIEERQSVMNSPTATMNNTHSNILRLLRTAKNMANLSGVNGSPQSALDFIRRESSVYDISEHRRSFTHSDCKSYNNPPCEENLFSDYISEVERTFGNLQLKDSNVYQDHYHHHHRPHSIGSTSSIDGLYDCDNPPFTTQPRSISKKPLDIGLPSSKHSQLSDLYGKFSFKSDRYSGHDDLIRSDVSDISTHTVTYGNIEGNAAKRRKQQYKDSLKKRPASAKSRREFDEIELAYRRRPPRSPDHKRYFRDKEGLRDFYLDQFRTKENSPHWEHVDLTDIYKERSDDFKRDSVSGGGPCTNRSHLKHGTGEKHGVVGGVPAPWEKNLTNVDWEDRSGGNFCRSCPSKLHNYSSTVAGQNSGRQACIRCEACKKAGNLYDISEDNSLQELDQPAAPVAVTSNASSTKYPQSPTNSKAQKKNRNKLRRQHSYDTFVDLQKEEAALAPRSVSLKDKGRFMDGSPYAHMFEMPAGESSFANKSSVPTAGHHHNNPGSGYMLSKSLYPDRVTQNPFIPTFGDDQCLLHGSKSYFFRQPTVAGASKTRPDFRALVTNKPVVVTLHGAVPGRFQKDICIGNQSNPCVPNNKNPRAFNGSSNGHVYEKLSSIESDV

SMILES: Oc1ccc(OCCN2CCC(Cc3ccccc3)CC2)cc1 [4-[2-(4-Benzyl-piperidin-1-yl)-ethoxy]-phenol]
- IC50: 25 nM
